The numbers were not newly measured in US12623013B2, “Compounds, systems, and techniques for removal of peripheral amyloid beta peptide with albumin binding competitors” (Fresenius Medical Care Holdings, Inc., priority 2021, dated 2026), which cites them from elsewhere.

The data set deals with human albumin (Homo sapiens, UniProt P02768). To be noted: read-out: binding constant to human albumin.
human albumin, sequence (P02768 25-609): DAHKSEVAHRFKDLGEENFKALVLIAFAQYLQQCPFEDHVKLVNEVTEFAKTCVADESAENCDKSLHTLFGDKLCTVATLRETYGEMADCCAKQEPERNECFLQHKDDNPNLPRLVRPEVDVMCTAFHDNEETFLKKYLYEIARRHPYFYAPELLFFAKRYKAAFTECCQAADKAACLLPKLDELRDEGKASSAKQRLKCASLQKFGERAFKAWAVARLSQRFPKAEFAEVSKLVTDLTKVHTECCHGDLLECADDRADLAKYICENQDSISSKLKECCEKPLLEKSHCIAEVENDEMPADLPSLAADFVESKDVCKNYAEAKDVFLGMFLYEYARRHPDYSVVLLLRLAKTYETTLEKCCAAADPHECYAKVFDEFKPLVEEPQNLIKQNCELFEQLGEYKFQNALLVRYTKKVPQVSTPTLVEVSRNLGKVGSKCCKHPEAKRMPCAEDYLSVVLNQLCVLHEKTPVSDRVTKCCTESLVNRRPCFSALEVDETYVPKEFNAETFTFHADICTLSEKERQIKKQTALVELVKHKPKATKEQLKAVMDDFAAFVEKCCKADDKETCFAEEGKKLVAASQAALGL

As for Ac-WWEQDRDWDFDVFGGGTP-NH2 [89D03], the Kd is around 15 nM.
